Results on 6 molecules are retold here after patent EP0424538A1, “PYRIDINE DERIVATIVES AND THEIR SALTS, AND INSECTICIDAL/ACARICIDAL AGENT CONTAINING THE SAME AS ACTIVE INGREDIENT” (IDEMITSU KOSAN COMPANY LIMITED, priority 1989, dated 1990).

In the first assay the test system is larvae (3-periods old) of tobiirounka. Kind of assay: rice stalk immersion test, life or death of larvae. The note with it: 168 h; rice stalk immersed 1 minute in 500 ppm chemical solution; checked after 7 days at 25 °C; read-out: % dead larvae. The format is in vivo. The method, then: A stalk of rice cut in a length of 10 cm was immersed for 1 minutes in a chemical solution of one of the compounds obtained in the examples (excepting the compound of Example 4) in a concentration of 500 ppm and, after air-drying, put into a test tube containing water, in which larvae (3-periods old) of tobiirounka were released and kept standing in a thermostatic chamber at 25 °C with a cotton plug.
After 7 days of the testing, life or death of the above mentioned larvae was checked to find 100% dead larvae with each of the compounds obtained in the examples. Comparative Test Example.
In place of the compounds used in Test Example, the same test was undertaken by using: . [drawing 136]
In the case of `CCCCc1cnccc1CC`, the mortality at 500 µg/mL is 92%.

Take `C=CCC(CC=C)c1ccncc1C` [CA 85, 32850y, 1976]: the mortality at 500 µg/mL was 90%.

Consider `CC(C)(C)c1ccncc1C(C)(C)C` [CA 100, 155997n, 1984], for which the mortality at 500 µg/mL came out at 92%.

Take `Cc1cnccc1C(C)CCC1CCCCC1` (stereo not drawn) [CA 109, 6426j, 1988]: the mortality at 500 µg/mL is 98%.

In a further assay the test system is cabbage maggot (Hylemya brassicae).
Experiment: not given
The following applies: from Chemical Abstracts and Journal of Economic Entomology, 41, 98, 1948; cited from earlier work.
For the molecule `CCCCC(CCCC)c1ccncc1` [4-(5-nonyl) pyridine], the “activity against cabbage maggot” value was “no activity was recognized”.

`CCCCCc1ccncc1` [4-n-amyl pyridine]: the “activity against cabbage maggot” value was “no activity was recognized”.
